Patent US9474763B2, “Compositions and methods for amelioration and prevention of drug-induced toxicity” (priority 2012, dated 2016)
Where two headings read alike, the source gives them in different places.

Experiments:
[1] = test system: toxicity induced by APAP; details: for effect on liver enzymes serum levels: Example 2, Tables 3 and 4, 0.1-0.4 mg/mouse with APAP 4 mg; for beneficial effect on acetaminophen-induced liver toxicity: mice, administered together with, or following, large dosage of acetaminophen
Experimental: IB was tested for its effect on toxicity induced by APAP in comparison to NAC using the following procedure: Mice were allocated into four groups of six mice each, as described in Table 1 below. The mice received sub-lethal hepatotoxic doses of APAP, causing liver damage equivalent to consumption of approximately 10 gr APAP (20 caplets of 500 mg) per 70 kg man.
Food was taken on the afternoon (18:00) of Day 0. Mice were orally administered APAP, APAP+IB or APAP+NAC 15 h hours later (9:00 next morning, Day 1) by gavage administration. A total of 350 μl were administered, containing the different components in the desired concentrations in PBS. Food was returned 2 h after APAP administration (Day 1). For all groups, mice were weighted daily, and blood samples were taken 24 h hours after APAP administration (Day 2). Serum levels of the liver enzymes aspartate aminotransferase (AST) and alanine aminotransferase (ALT) were measured using a Reflovet® Plus clinical chemistry analyzer (Roche Diagnostics, GmbH, Mannheim, Germany). Serum samples were diluted before the measurements, as needed.
The following combinations were tested using the same procedure described in Example 1 above, and compared to 4 mg APAP+3 or 3.5 mg NAC: […]
This combination was tested for its effect on toxicity induced by APAP using the procedure described in Example 1 above. […]
Mice were treated according to the procedure describe in Example 1 above.

[2] = test system: toxicity induced by APAP; experiment: Liver biopsy histology (H&E) 24 h after APAP administration; format: in vivo, mice
Experimental: In addition, liver biopsies were performed. For histopathology, livers from individual mice were fixed in 10% formaldehyde solution and kept at room temperature until use. The tissue blocks were then embedded in paraffin, […] sections were cut and stained with hematoxylin and eosin (H&E) for morphological examination. […] Improved liver architecture with no evidence for cellular damage and necrosis can be seen in all treated groups.

[3] = Body weight of fasted mice given APAP (weight ratio / difference between days); format: in vivo
Description: Table 9 presents the effect of each combination on body weight loss, as determined by the ratio of the mice body weight between Day 0 and Day 2.
Table 12 presents the effect of each combination on body weight loss, as determined by the ratio of the mice body weight between Day 0 and Day 2 and by the difference in the mice body weight between Day 1 (immediately after administration of APAP with the different combinations and before food was returned) and Day 2.
Table 18 presents the effect of each combination on body weight, as determined by the difference in the mice body weight between Day 1 (immediately after administration of APAP with the different combinations and before food was returned) and Day 2.
This combination was tested for its effect on toxicity induced by APAP using the procedure described in Example 1 above with several modifications, as described below. Mice were allocated into four groups of six mice each, as detailed in Table 19 below. Food was taken on the afternoon (18:00) of Day 0. Mice were orally administered APAP 15 hours later (9:00 next morning, Day 1) by gavage administration. NAC was administered PO with APAP. MSM+IB were administered 1.5 h later. Following another 1.5 h, PC was administered. Food was returned 3.5 h after APAP administration (Day 1). Weight was determined three times: on Day 0 before food was taken, after over-night fasting (Day 1, just before APAP administration) and before sacrifice (Day 2, 24 hours after APAP administration).

[4] = test system: ConA-activated splenocytes; experiment: IFN-γ secretion by ConA-activated splenocytes from treated mice (ELISA); format: cell-based; details: FIG. 5; groups A, B, C, D of Table 24; 5 μg ConA, 20 h; p=NS
Experimental: After mice were sacrificed, spleens from five mice from each group were taken and splenocytes were isolated by the following procedure: Isolation of splenocytes: Spleens were stored in RPMI-1640 medium supplemented with FCS. Spleens were crushed through a 70-μm nylon cell strainer (Falcon) and centrifuged (1,250 rpm for 7 min.). Red blood cells were lysed in 1 ml of cold 155 mM ammonium chloride lysis buffer. Splenocytes were washed and resuspended in 1 ml of RPMI supplemented with FCS. The viability of cells as assessed by trypan blue exclusion exceeded 90%. Next, splenocytes (1×10^6 per mouse, per well, in duplicates) were moved into a 24 well plate containing RPMI-1640 supplemented with 10% FCS, 1% penicillin/streptomycin (P/S), 1% glutamine, 1% sodium pyruvate and 1% non-essential amino acid. […] After incubation cells from all wells were moved to Eppendorff tubes and centrifuged for 5 minutes. Then supernatants were collected and freezed in −80° C. until assayed for IFN-γ by ELISA. Cytokine determination: Levels of IFN-γ were determined by “sandwich” ELISA using commercial kit according to the manufacturer's instructions (Quantikine, R&D Systems, Minneapolis, Minn., USA).

[5] = Table 2, serum 24 h after APAP, PO, APAP 4 mg/mouse alone or + NAC 3 mg/mouse
[6] = Table 3, 24 h, PO, APAP 4 mg/mouse alone or + NAC 3 mg/mouse
[7] = Table 4, 24 h, PO, APAP 4 mg/mouse alone or + NAC 3.5 mg/mouse
[8] = Table 6, 24 h, PO, APAP 4 mg/mouse alone or + NAC 3.5 mg/mouse
[9] = Table 8, 24 h, PO, APAP 4 mg/mouse alone or + NAC 3 mg/mouse
[10] = Table 11, 24 h, PO, per mouse APAP 4 mg, NAC 3.5 mg, PC 0.9 mg after 3 h
[11] = Table 14, 24 h, PO, APAP 4 mg/mouse alone or + NAC 3.5 mg, PC 0.9 mg after 3 h
[12] = Table 14, 24 h, PO, APAP 4.6 mg/mouse alone or + NAC 3.5 mg, PC 0.9 mg after 3 h
[13] = Table 17, 24 h, PO, per mouse APAP 4 mg, NAC 3.5 mg, MSM 1.5 mg
[14] = Table 20, 24 h, PO, APAP 7 mg/mouse alone or + NAC 3.5 mg/mouse
[15] = Table 23, 24 h, PO, per mouse APAP 4 mg, MSM 0.15 mg, IB 0.1 mg
[16] = Table 27, 24 h, PO, per mouse APAP 4.6 mg, NAC/Cys/Met 3.5 mg, PC 0.9 mg, MSM 0.2 mg, IB 0.1 mg
[17] = Table 30, APAP 4.6 mg with NAC/Cys/Met 3.5 mg, MSM 0.1 mg + IB 0.1 mg after 1.5 h, PC 0.9 mg after 3 h
[18] = Table 33, 24 h, PO, per mouse APAP 4.6 mg, NAC/Cys/Met 3.5 mg
[19] = Table 12, per mouse APAP 4 mg, NAC 3.5 mg, PC 0.9 mg after 3 h
[20] = Table 15, APAP 4 mg/mouse alone or + NAC 3.5 mg, PC 0.9 mg after 3 h
[21] = Table 15, APAP 4.6 mg/mouse alone or + NAC 3.5 mg, PC 0.9 mg after 3 h
[22] = Table 21, APAP 7 mg/mouse alone or + NAC 3.5 mg/mouse

COc1cc([C@@H]2Oc3cc([C@H]4Oc5cc(O)cc(O)c5C(=O)[C@@H]4O)ccc3O[C@H]2CO)ccc1O [silybin B]
effect on liver enzymes serum levels [1]: ineffective in reducing liver enzymes serum levels
beneficial effect on acetaminophen-induced liver toxicity [1]: did not show a beneficial effect

CC(=O)Nc1ccc(O)cc1 [APAP, N-(4-hydroxyphenyl)acetamide]
ALT (average ± std. dev.) [1, 5]: 14,360 ± 4,370.52 IU/L
AST (average ± std. dev.) [1, 5]: 18,920.00 ± 12,192.04 IU/L
ALT (average ± std. dev.) [1, 6]: 5,617.50 ± 1,832.77 IU/L
AST (average ± std. dev.) [1, 6]: 3,672.67 ± 1,965.99 IU/L
ALT (average ± std. dev.) [1, 7]: 8,880.00 ± 2,624.31 IU/L
AST (average ± std. dev.) [1, 7]: 5,848.67 ± 1,993.43 IU/L
ALT (average ± std. dev.) [1, 8]: 7,790.0 ± 2,175.9 IU/L
AST (average ± std. dev.) [1, 8]: 4,883.3 ± 1,549.4 IU/L
ALT (average ± std. dev.) [1, 9]: 6,421.67 ± 2,914.38 IU/L
AST (average ± std. dev.) [1, 9]: 3,686.67 ± 2,168.08 IU/L
ALT (average ± std. dev.) [1, 10]: 7,530.00 ± 2,339.06 IU/L
AST (average ± std. dev.) [1, 10]: 4,988.67 ± 878.44 IU/L
ALT (average ± std. dev.) [1, 11]: 5,739.25 ± 2,536.44 IU/L
AST (average ± std. dev.) [1, 11]: 4,374.00 ± 2,384.21 IU/L
ALT (average ± std. dev.) [1, 12]: 7,772.50 ± 1,771.00 IU/L
AST (average ± std. dev.) [1, 12]: 6,310.00 ± 2,127.07 IU/L
ALT (average ± std. dev.) [1, 13]: 9,040 ± 3,472.64 IU/L
AST (average ± std. dev.) [1, 13]: 6,560 ± 2,618.34 IU/L
ALT (average ± std. dev.) [1, 14]: 20,160.00 ± 9,678.28 IU/L
AST (average ± std. dev.) [1, 14]: 20,001.00 ± 11,998.16 IU/L
ALT (average ± std. dev.) [1, 15]: 8,918.00 ± 2,955.74 IU/L
AST (average ± std. dev.) [1, 15]: 6,586.67 ± 4,204.58 IU/L
AST (average ± std. dev.) ([1]; Table 25, 24 h, PO, per mouse APAP 4 mg, MSM 0.25 mg, IB 0.1 mg): 4,303.33 ± 2,163.30 IU/L
ALT (average ± std. dev.) [1, 16]: 10285.00 ± 4435.22 IU/L
AST (average ± std. dev.) [1, 16]: 7796.00 ± 5000.46 IU/L
ALT (average ± std. dev.) [1, 17]: 11210.83 ± 7589.19 IU/L
AST (average ± std. dev.) [1, 17]: 10577.33 ± 11375.63 IU/L
ALT (average ± std. dev.) [1, 18]: 9002.50 ± 4211.03 IU/L
AST (average ± std. dev.) [1, 18]: 5684.00 ± 2307.64 IU/L
histological liver sections ([2]; FIG. 1, groups of Table 5, 24 h after APAP 4 mg/mouse): diffuse damage to hepatocytes
histological liver sections ([2]; FIG. 2, groups of Table 7, 24 h after APAP 4 mg/mouse): diffuse damage to hepatocytes
histological liver sections ([2]; FIG. 3, groups of Table 10, 24 h after APAP 4 mg/mouse): diffuse damage to hepatocytes
histological liver sections ([2]; FIG. 4, groups of Table 16, 24 h after APAP 4 mg/mouse): diffuse damage to hepatocytes
histological liver sections ([2]; FIG. 6, groups of Table 26, 24 h after APAP 4.6 mg/mouse): diffuse damage to hepatocytes
histological liver sections ([2]; FIG. 7, groups of Table 29, 24 h after APAP 4.6 mg/mouse): diffuse damage to hepatocytes
histological liver sections ([2]; FIG. 8, groups of Table 32, 24 h after APAP 4.6 mg/mouse): diffuse damage to hepatocytes
decrease in body weight during the two days of the experiment ([3]; Example 4, Table 9, APAP 4 mg/mouse only): 6%
decrease in body weight during the two days of the experiment ([3]; Example 8, Table 28, APAP 4.6 mg only): more than 8%
decrease in body weight during the two days of the experiment ([3]; Example 8, Table 31, APAP 4.6 mg only): more than 8%
decrease in body weight during the two days of the experiment ([3]; Example 8, Table 34, APAP 4.6 mg only): more than 6%
Weight ratio Day 0-Day 2 ([3]; Table 9, APAP 4 mg/mouse alone or + NAC 3 mg/mouse, PO): 94.17%
Weight difference Day 1 − Day 2 [3, 19]: 1.17
Weight ratio Day 1-Day 2 [3, 19]: 105%
Weight difference Day 1 − Day 2 [3, 20]: 2.07
Weight ratio Day 1-Day 2 [3, 20]: 108%
Weight difference Day 1 − Day 2 [3, 21]: 1.02
Weight ratio Day 1-Day 2 [3, 21]: 104%
Weight difference Day 1 − Day 2 ([3]; Table 18, per mouse APAP 4 mg, NAC 3.5 mg, MSM 1.5 mg): 1.05
Weight difference Day 1 − Day 2 [3, 22]: −0.45
Weight ratio Day 1-Day 2 [3, 22]: 98%
Weight ratio Day 0-Day 2 ([3]; Table 28, per mouse APAP 4.6 mg, NAC/Cys/Met 3.5 mg, PC 0.9 mg, MSM 0.2 mg, IB 0.1 mg): 91.59%
Weight ratio Day 0-Day 2 ([3]; Table 31, APAP 4.6 mg with NAC/Cys/Met 3.5 mg, MSM 0.1 mg + IB 0.1 mg after 1.5 h, PC 0.9 mg after 3 h): 91.23%
Weight ratio Day 0-Day 2 ([3]; Table 34, per mouse APAP 4.6 mg, NAC/Cys/Met 3.5 mg): 93.26%
IFN-γ levels secreted by ConA-activated splenocytes [4]: 259 pg/mL

COc1cc([C@H]2Oc3ccc([C@H]4Oc5cc(O)cc(O)c5C(=O)[C@@H]4O)cc3O[C@@H]2CO)ccc1O [IA, Isosilybin A]
effect on liver enzymes serum levels [1]: ineffective in reducing liver enzymes serum levels
beneficial effect on acetaminophen-induced liver toxicity [1]: did not show a beneficial effect
